From patent US20100099732A1, “MEDICAMENTS USEFUL AS POTASSIUM CHANNEL MODULATORS” (NeuroSearch A/S, priority 2007, published 2010)

Target: T1, BK channels (Homo sapiens, UniProt Q12791)
T1 construct: expressed in transfected cells; host or cells: Xenopus laevis oocytes
Assay: BK channel opening activity, two-electrode voltage clamp in Xenopus laevis oocytes
Assay type: cell-based
Procedure: In this example the BK channel opening activity of a phenylcarbamoyl-methyl-indole derivative for use according to the invention, i.e. 5-Chloro-3-[(3-chloro-phenylcarbamoyl)-methyl]-1H-indole-2-carboxylic acid (herein designated Compound A), is determined using BK channels heterologously expressed in Xenopus laevis oocytes.
The electrical current through the BK channel is measured conventional two-electrode voltage clamp. BK current is activated by repeated step protocols. In brief, this protocol goes from a resting membrane potential of −40 mV lasting for 5 s to a depolarised step to +20 mV lasting for 1 s. The protocol was repeated continuously.
Having reached stable current level, Compound A (10 μM), was added. A marked increase in the current activated by depolarisation could be observed. The BK current activity returned to baseline after approximately 30-60 seconds of wash. In summary BK current was increased by 92±23% in the presence of 10 μM of compound A (n=3, SD value).

T1 sequence (Q12791 whole entry): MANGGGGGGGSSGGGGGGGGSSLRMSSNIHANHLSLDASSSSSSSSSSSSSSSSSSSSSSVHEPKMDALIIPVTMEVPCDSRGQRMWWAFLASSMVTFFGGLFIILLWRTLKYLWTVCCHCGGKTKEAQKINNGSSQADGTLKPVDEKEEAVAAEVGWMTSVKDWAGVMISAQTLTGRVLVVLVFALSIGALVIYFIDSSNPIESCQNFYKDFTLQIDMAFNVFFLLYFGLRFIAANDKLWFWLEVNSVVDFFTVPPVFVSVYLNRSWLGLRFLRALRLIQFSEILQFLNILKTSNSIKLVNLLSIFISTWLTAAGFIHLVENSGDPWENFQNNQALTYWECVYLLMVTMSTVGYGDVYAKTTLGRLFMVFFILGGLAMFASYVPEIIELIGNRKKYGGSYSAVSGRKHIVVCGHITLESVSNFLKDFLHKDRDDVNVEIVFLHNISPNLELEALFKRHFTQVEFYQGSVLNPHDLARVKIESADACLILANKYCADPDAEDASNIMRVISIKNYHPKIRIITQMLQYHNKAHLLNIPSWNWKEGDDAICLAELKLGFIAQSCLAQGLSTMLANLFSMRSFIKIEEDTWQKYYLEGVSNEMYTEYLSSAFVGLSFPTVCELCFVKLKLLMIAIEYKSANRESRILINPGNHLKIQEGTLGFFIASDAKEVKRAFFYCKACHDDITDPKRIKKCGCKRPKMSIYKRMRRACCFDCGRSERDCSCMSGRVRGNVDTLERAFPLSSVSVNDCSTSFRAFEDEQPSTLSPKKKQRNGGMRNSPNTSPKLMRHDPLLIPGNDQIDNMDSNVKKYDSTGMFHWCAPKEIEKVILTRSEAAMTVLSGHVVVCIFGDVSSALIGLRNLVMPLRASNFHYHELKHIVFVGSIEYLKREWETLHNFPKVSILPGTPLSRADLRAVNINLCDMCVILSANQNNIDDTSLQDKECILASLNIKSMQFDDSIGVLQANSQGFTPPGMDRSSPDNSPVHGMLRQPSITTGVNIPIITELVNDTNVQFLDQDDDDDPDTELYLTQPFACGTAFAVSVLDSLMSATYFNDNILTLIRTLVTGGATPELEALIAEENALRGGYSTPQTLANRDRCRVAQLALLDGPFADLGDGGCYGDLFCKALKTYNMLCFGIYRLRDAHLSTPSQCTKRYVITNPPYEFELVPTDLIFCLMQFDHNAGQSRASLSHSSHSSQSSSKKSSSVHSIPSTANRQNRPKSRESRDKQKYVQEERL

BK current increase (10 μM compound, BK channels heterologously expressed in Xenopus laevis oocytes, depolarising step to +20 mV, n=3, SD value): 92±23%
BK current activity return to baseline after wash (wash after 10 μM compound, Xenopus laevis oocytes): 30 to 60 s
Structure (SMILES): O=C(Cc1c(C(=O)O)[nH]c2ccc(Cl)cc12)Nc1cccc(Cl)c1 [Compound A, 5-Chloro-3-[(3-chloro-phenylcarbamoyl)-methyl]-1H-indole-2-carboxylic acid]
